System: U87 gliomas
Assay: NO distribution in U87 gliomas by DAF-2T fluorescence (MPLSM)
Assay type: in vivo, mice
Settings: U87 tumor with shRNA58 vs parental U87, cranial window, Rag-1-/- mice
Procedure: FIGS. 3A-B show microfluorographs depicting NO distribution in U87 gliomas grown in the cranial window in Rag-1^−/−. NO production was visualized by means of DAF-2T fluorescence 0, 20, 40 and 60 min after DAF-2 (0.5 mg/body) injection. Left column, micro-angiography with tetramethylrhodamine-dextran (2000 kDa). Middle column, representative DAF-2T microfluorography captured 60 min after the loading of DAF-2 in tumors. Right column, pseudocolor representation of DAF-2T microfluorographs. […] Bars indicate 100 μm. (A) NO distribution in parental U87MG (top row) or nNOS shRNA58-transfected-U87 (bottom row) tumors. […]
Vascular parameters such as functional vessel density (the total length of perfused microvessels per unit area) and vessel diameter were analyzed by tracing each vessel segment using NIH image 1.63 as described elsewhere (Kashiwagi, S., et al. 2005 J. Clin. Invest. 115, 1816-1827). Tissue distribution of NO was visualized using MPLSM and the NO-sensitive fluorescence probe 4,5-diaminofluorescein (DAF-2) (0.5 mg i.v. Daiichi Pure Chemicals Co. Ltd) as described previously (Kashiwagi, S., et al. 2005 J. Clin. Invest. 115, 1816-1827). NO converts DAF-2 to 4,5-diaminofluorescein triazolium (DAF-2T) increasing fluorescence by a factor of 200. The DAF-2 associated fluorescence images were captured 60 min after i.v. injection. […]

## shRNA58: short-hairpin RNA for nNOS, CAAAGAGATCGACACCATC (sense), GATGGTGTCGATCTCTTTGTT (antisense), in pSilencer 3.1 H-1-hygro, stably transfected into U87MG
  DAF-associated fluorescence (NO distribution): predominantly localized in vascular region
